Reference: ChEMBL document CHEMBL1208697 (Bioorg Med Chem Lett, 2010)

test system: Rattus norvegicus; test: Antiinflammatory activity in rat assessed as inhibition of carrageenan-induced paw edema after 3 hrs; type: functional

SMILES	ED50 [µmol/kg]
NS(=O)(=O)c1ccc(-n2nc(C(F)(F)F)cc2-c2ccc(/[N+]([O-])=N\O)cc2)cc1	168
CO/N=[N+](/[O-])c1ccc(-c2cc(C(F)(F)F)nn2-c2ccc(S(N)(=O)=O)cc2)cc1	241

test system: Rattus norvegicus; test: Antiinflammatory activity in rat assessed as inhibition of carrageenan-induced paw edema at 100 mg/kg, po after 3 hrs; type: functional

SMILES	inhibition in vivo at 100 mg/kg [%]
NS(=O)(=O)c1ccc(-n2nc(C(F)(F)F)cc2-c2ccc(/[N+]([O-])=N\O)cc2)cc1	65.7
CO/N=[N+](/[O-])c1ccc(-c2cc(C(F)(F)F)nn2-c2ccc(S(C)(=O)=O)cc2)cc1	9.8
CO/N=[N+](/[O-])c1ccc(-c2cc(C(F)(F)F)nn2-c2ccc(S(N)(=O)=O)cc2)cc1	47.7
CC(=O)OC(C)O/N=[N+](/[O-])c1ccc(-c2cc(C(F)(F)F)nn2-c2ccc(S(C)(=O)=O)cc2)cc1 (stereo unspecified)	5.1
CC(=O)OC(C)O/N=[N+](/[O-])c1ccc(-c2cc(C(F)(F)F)nn2-c2ccc(S(N)(=O)=O)cc2)cc1 (stereo unspecified)	18.6

biological target: T1, Prostaglandin G/H synthase 1 (Ovis aries, UniProt P05979)
T1 sequence (P05979 whole entry): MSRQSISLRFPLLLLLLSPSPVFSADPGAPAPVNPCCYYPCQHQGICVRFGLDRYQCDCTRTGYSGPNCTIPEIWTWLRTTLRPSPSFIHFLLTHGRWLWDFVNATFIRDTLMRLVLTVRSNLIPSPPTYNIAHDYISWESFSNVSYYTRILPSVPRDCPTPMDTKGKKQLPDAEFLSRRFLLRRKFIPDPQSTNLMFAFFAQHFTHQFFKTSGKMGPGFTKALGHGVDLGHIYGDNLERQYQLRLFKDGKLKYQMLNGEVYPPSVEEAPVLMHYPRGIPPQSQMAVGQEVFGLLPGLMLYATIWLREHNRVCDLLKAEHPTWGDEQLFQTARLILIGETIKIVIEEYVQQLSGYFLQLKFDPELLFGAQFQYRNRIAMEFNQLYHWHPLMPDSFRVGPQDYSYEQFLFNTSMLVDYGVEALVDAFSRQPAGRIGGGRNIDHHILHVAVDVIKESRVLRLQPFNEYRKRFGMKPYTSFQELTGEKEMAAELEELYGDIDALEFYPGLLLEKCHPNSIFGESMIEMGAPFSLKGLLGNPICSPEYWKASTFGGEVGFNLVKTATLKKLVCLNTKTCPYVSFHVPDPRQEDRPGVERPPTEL
Description: Inhibition of sheep COX1 by enzyme immunoassay

SMILES	IC50 [µM]
CO/N=[N+](/[O-])c1ccc(-c2cc(C(F)(F)F)nn2-c2ccc(S(C)(=O)=O)cc2)cc1	10.5
CO/N=[N+](/[O-])c1ccc(-c2cc(C(F)(F)F)nn2-c2ccc(S(N)(=O)=O)cc2)cc1	12.1
CC(=O)OC(C)O/N=[N+](/[O-])c1ccc(-c2cc(C(F)(F)F)nn2-c2ccc(S(C)(=O)=O)cc2)cc1 (stereo unspecified)	17
CC(=O)OC(C)O/N=[N+](/[O-])c1ccc(-c2cc(C(F)(F)F)nn2-c2ccc(S(N)(=O)=O)cc2)cc1 (stereo unspecified)	11.3
